Results reported in patent US10058530B2, “Combination therapies for the treatment of Alzheimer's disease and related disorders” (The General Hospital Corporation, priority 2012, dated 2018).
“Also recorded” adds a separate entry of the source. Where two headings read alike, the source gives them in different places.

What was measured:
[1] = tested on: Aβ fibril formation; conditions: cited from earlier work
[2] = tested on: Alzheimer's disease patients; conditions: Phase 2a; cited from earlier work
[3] = in vivo; cited from earlier work
[4] = tested on: AD patients; conditions: some AD patients; Wettstein and Spiegel, 1985; cited from earlier work
[5] = tested on: Aβ peptide; assay: Aβ aggregation by thioflavin T assay; type: biochemical; conditions: for inhibition of Aβ amyloid peptide polymerization into oligomers and higher order aggregates: summary of four separate in vitro assays, nanomolar concentrations; for inhibition of Aβ aggregation, thioflavin fluorescence: nanomolar concentration
Description: One of the most routinely used approaches to monitor Aβ polymerization is the thioflavin T binding assay. […] Aβ peptide at 5 μM was mixed with 10 μM thioflavin T with drug at different concentrations.
(§1) One of the most routinely used approaches to monitor Aβ polymerization is the thioflavin T binding assay (Elmaleh, 2014; Hori, 2015). […] Aβ peptide at 5 μM was mixed with 10 μM thioflavin T with drug at different concentrations.
Fibrillization of synthetic Aβ40 (FIG. 12A, left column and FIG. 12B, left column) or Aβ42 (FIG. 12A, right column and FIG. 12B, right column) peptides was followed over 1 hour.

[6] = Brain concentration of PIB analog TS3124; conditions: in vivo
[7] = inhalation studies, Beach et al. 1981; cited from earlier work
[8] = human
[9] = clinical; conditions: human, in vivo; for MRT: mean residence time in plasma
[10] = tested on: microglial cells; assay: Aβ uptake by cultured microglial cells; type: cell-based; conditions: 0, 10 nM, 10 μM or 1 mM, 16 hours
Description: After the incubation, the concentrations of […]-42 (right panel) in media were measured using Aβ ELISA and normalized with microglia cell number and according to the PBS control condition. (n=3 experiments; *, P<0.05, **, P<0.01)

[11] = molecular target: T1, Aβ40 (Homo sapiens, UniProt P05067); assay: Thioflavin T fibrillization assay, synthetic Aβ40; type: biochemical; design: host or cells: synthetic peptide; conditions: 5 nM, 50 nM and 500 nM; followed over 1 hour
Description: as §1
(§2) Fibrillization of synthetic Aβ40 (FIG. 12A, left column and FIG. 12B, left column) or Aβ42 (FIG. 12A, right column and FIG. 12B, right column) peptides was followed over 1 hour. The corresponding Vmax index (milli-units/minute) is indicated on each graph.

[12] = molecular target: Abeta (1-40) peptides (Homo sapiens, UniProt P05067); assay: UV aggregation assay; type: biochemical
Description: Abeta peptide aggregation and the impact of drugs to slow or prevent Abeta aggregation was measured by a UV absorbance assay (Findeis, 1999). Abeta (1-40) peptides, at 50 μM, were mixed with 50 μM drug in assay buffer and the plate was incubated at ambient temperature on a plate reader. The UV absorbance was monitored at 540 nm over a 2-3 h period.
Polymerization of Aβ-monomer peptides into clusters of trimers and tetramers initiates the Aβ aggregation process into protofibrils and then into fibrils that form amyloid plaques.

[13] = tested on: microglia (Iba1) around amyloid deposits; assay: Immunostaining of Aβ and microglial marker Iba1 in brain sections of APP/PS1 mice; type: in vivo; conditions: 3.15 mg/kg daily for seven days, vs PBS
[14] = human lung, high inspiratory rates, dry powder inhaler; cited from earlier work
[15] = molecular target: T1, Aβ40; assay: TBS soluble Aβ40 level in brain of APP/PS1 mice by WAKO ELISA; type: in vivo; design: from tissue; host or cells: brain TBS-soluble extract of APP/PS1 transgenic mice; conditions: two higher doses (2.1 mg/kg and 3.15 mg/kg), IP daily 7 days
Description: (§3) The treatment was given by IP injection everyday for 7 days before sacrificing the mice and harvesting the brain. Brain extracts were quantified for the total amount of Aβ40, Aβ42 and Aβ oligomers.
(§4) FIG. 5 illustrates the measurement of TBS soluble Aβ level by WAKO ELISA. […] As indicated, the number of animals per group is N=3 or 5, average±SE. The p value is significant using one-way ANOVA test (Bonferroni's test).

[16] = molecular target: T2, Aβ42 (Homo sapiens, UniProt P05067); assay: Thioflavin T fibrillization assay, synthetic Aβ42; type: biochemical; design: host or cells: synthetic peptide; conditions: 5 nM, 50 nM and 500 nM; followed over 1 hour; smaller effects than on Aβ40
Description: as §1, §2

[17] = J. Pharm. Sci. 92(6), 2003; cited from earlier work
[18] = tested on: Aβ oligomer; assay: TBS soluble Aβ oligomer level in brain of APP/PS1 mice (IBL 82E1-82E1 oligomer ELISA); type: in vivo; conditions: IP daily 7 days
Description: as §3
FIG. 6 illustrates the measurement of TBS soluble Aβ oligomer level IBL oligomer ELISA (82E1-82E1). […] FIGS. 6B and 6C show the difference the experiments with Gdn and those without Gdn using Aβ WAKO ELISA. N=3 or 5 animals per group, average±SE. The p value is not significant using one-way ANOVA test (Bonferroni's test).

[19] = tested on: TBS soluble Aβ; assay: TBS soluble Aβ level in brain of APP/PS1 mice by WAKO ELISA; type: in vivo
Description: as §3, §4

[20] = molecular target: T2, Aβ42; assay: TBS soluble Aβ42 level in brain of APP/PS1 mice by WAKO ELISA; type: in vivo; design: from tissue; host or cells: brain TBS-soluble extract of APP/PS1 transgenic mice; conditions: two higher doses (2.1 mg/kg and 3.15 mg/kg), IP daily 7 days
Description: as §3, §4

[21] = tested on: basal forebrain cholinergic neurons; conditions: rats; cited from earlier work
[22] = tested on: cholinergic neurons; conditions: aged rhesus monkeys; cited from earlier work

Sequence of Abeta (1-40) peptides (P05067 672-711 limits assumed): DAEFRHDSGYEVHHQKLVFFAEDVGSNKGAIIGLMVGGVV
T2 sequence (P05067 672-713 limits assumed): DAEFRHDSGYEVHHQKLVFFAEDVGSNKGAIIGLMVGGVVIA
T1 sequence (P05067 672-711 limits assumed): as the sequence (P05067 672-711 limits assumed) above

O=c1c(O)c(-c2ccc(O)c(O)c2)oc2ccccc12 [3,3′,4′-Trihydroxyflavone, 3,3′,4′-Tri-hydroxyflavone]
Effects on Aβ fibril formation [1]: Inhibitory

O=c1c(O)c(-c2cccc(O)c2)oc2cc(O)ccc12 [3,3′,7-Trihydroxyflavone, 3,3′,7-Tri-hydroxyflavone]
Effects on Aβ fibril formation [1]: Enhancing

O=c1c(O)c(-c2ccc(O)cc2)oc2cc(O)ccc12 [3,4′,7-Trihydroxyflavone, 3,4′,7-Tri-hydroxyflavone]
Effects on Aβ fibril formation [1]: Inhibitory

O=c1c(O)c(-c2ccc(O)cc2)oc2cc(O)ccc12 [5-Deoxykaempferol, 5-Deoxy-kaempferol]
Effects on Aβ fibril formation [1]: Enhancing

O=c1cc(-c2ccccc2)oc2cc(O)cc(O)c12 [Chrysin]
Effects on Aβ fibril formation [1]: Enhancing

O=c1c(O)c(-c2ccc(O)cc2)oc2cc(O)cc(O)c12 [Kaempferol]
Effects on Aβ fibril formation [1]: Enhancing

O=c1cc(-c2ccc(O)c(O)c2)oc2cc(O)cc(O)c12 [Luteolin]
Effects on Aβ fibril formation [1]: Inhibitory

O=c1c(O)c(-c2cc(O)c(O)c(O)c2)oc2cc(O)cc(O)c12 [Myricetin]
Effects on Aβ fibril formation [1]: Inhibitory

O=c1c(O)c(-c2ccc(O)c(O)c2)oc2cc(O)cc(O)c12 [Quercetin]
Effects on Aβ fibril formation [1]: Inhibitory

O=C(NC1CN2CCC1CC2)c1n[nH]c2ccccc12 (stereo not drawn) [R3487]
effect on multiple measures of cognition [2]: statistically significant effect

CCN1C(=O)CC2(CCN(C)CC2)C1=O [RS-86, 2-ethyl-8-methyl-2,8-diazospiro-4,5-decan-1,3-dione]
brain penetration [3]: low | cognitive function, mood and social behavior [4]: improves cognitive function, mood and social behavior

O=C([O-])c1cc(=O)c2c(OCC(F)COc3cccc4oc(C(=O)[O-])cc(=O)c34)cccc2o1.[Na+].[Na+] [TS734]
inhibition of Aβ amyloid peptide polymerization into oligomers and higher order aggregates [5]: effectively inhibits

CC(F)CNc1ccc(-c2nc3ccc(O)cc3s2)cc1 (stereo not drawn) [TS3124]
brain concentration [6]: 4%

O=C([O-])c1cc(=O)c2c(OCC(O)COc3cccc4oc(C(=O)[O-])cc(=O)c34)cccc2o1.[Na+].[Na+] [cromolyn sodium]
pulmonary and cardiovascular (CV) function assessments [7]: no treatment effect | AUC (plasma) ([8]; 17.1 mg inhaled): 147.5±67.1 ng/mlxh | AUC (plasma), range ([8]; 17.1 mg inhaled): 44.7-287.0 ng/mlxh | maximum plasma concentration ([8]; 17.1 mg inhaled): 47.1 ± 33.6 ng/mL | maximum plasma concentration, range ([8]; 17.1 mg inhaled): 14.0 to 133 ng/mL | time of maximum plasma concentration ([8]; 17.1 mg inhaled): 23.3 ± 16.9 min | time of maximum plasma concentration, range ([8]; 17.1 mg inhaled): 5 to 60 min | AUC (plasma) ([8]; 34.2 mg inhaled (double dose)): 254.4±93.8 ng/mlxh | AUC (plasma), range ([8]; 34.2 mg inhaled (double dose)): 122.1-443.3 ng/mlxh | maximum plasma concentration ([8]; 34.2 mg inhaled (double dose)): 95.0 ± 45.5 ng/mL | maximum plasma concentration, range ([8]; 34.2 mg inhaled (double dose)): 36.1 to 236 ng/mL | time of maximum plasma concentration ([8]; 34.2 mg inhaled (double dose)): 22.2 ± 19.4 min | time of maximum plasma concentration, range ([8]; 34.2 mg inhaled (double dose)): 5 to 60 min | plasma concentration at 12 hours following inhalation ([8]; inhaled, expected): negligible | MRT ([9]; inhaled or intranasal, 17.1 mg, 17.1 mg inhaled): 3.3 ± 2.9 h | MRT ([9]; inhaled or intranasal, 17.1 mg, range, 17.1 mg inhaled): 0.79 to 12.1 h | MRT ([9]; inhaled or intranasal, 34.2 mg, 34.2 mg inhaled (double dose)): 2.8 ± 1 h | MRT ([9]; inhaled or intranasal, 34.2 mg, range, 34.2 mg inhaled (double dose)): 1 to 5.4 h | half-life ([9]; inhaled or intranasal, half-life of clearance from plasma, inhaled): 1.75 ± 0.9 h | half-life ([9]; inhaled or intranasal, half-life of clearance from plasma, range, inhaled): 0.5 to 3.7 h | half-life ([9]; plasma half-life corresponding to mean residence time, 17.1 mg inhaled): ~2.3 h | Aβ40 levels in media of microglia culture ([10]; 50 nM synthetic Aβ40): dose-dependent decrease | Aβ42 levels in media of microglia culture ([10]; 50 nM synthetic Aβ42): dose-dependent decrease | Aβ40 fibrillization, Thioflavin T fluorescence [11]: significantly decreased | inhibition of Aβ peptide polymerization [12]: 8 fold | inhibition of the rate of Aβ polymerization ([12]; equimolar with Aβ (50 μM)): 7 fold | time to 50% polymerization ([12]; equimolar with Aβ (50 μM), 14 minutes in absence of drug): 75 min | percentage of Iba1 immunoreactivity overlapping with amyloid [13]: higher percentage of Iba1 immunoreactivity overlapping with amyloid | percentage of Iba1 immunoreactivity overlapping with amyloid ([13]; listed as Cromolyn Sodium): increased overlap between Aβ and Iba1 | inhaled drug-delivered-dose absorbed into the bloodstream [14]: 10-15% | decrease in the amount of Aβ40 [15]: up to 50% | Aβ42 fibrillization, Thioflavin T fluorescence [16]: significantly decreased | concentration at which Aβ peptide polymerization is inhibited [5]: 5 nM | inhibition of Aβ aggregation, thioflavin fluorescence [5]: inhibition of Aβ aggregation; also recorded: inhibiting effect | inhibition of Aβ aggregation, thioflavin fluorescence ([5]; listed as CO399): inhibition of Aβ aggregation | inhibition of Aβ amyloid peptide polymerization into oligomers and higher order aggregates [5]: inhibits its polymerization into oligomers and higher order aggregates; also recorded: effectively inhibits | inhibition of Aβ amyloid peptide polymerization into oligomers and higher order aggregates ([5]; listed as cromolyn): effectively inhibits | % PSA [17]: 44 | LogP [17]: 1.9 | PSA [17]: 189 | Aβ oligomer level as difference with and without Gdn, WAKO ELISA [18]: not changed | monomeric Aβ (Gdn−) ([19]; APP/PS1 mice, IP daily 7 days, no guanidine): decease; also recorded: reduction | decrease of total soluble Aβ levels ([19]; after 1 week of peripheral administration): over 50% | decrease in the amount of Aβ42 [20]: up to 50%

Fisetin
Effects on Aβ fibril formation [1]: Inhibitory

NGF: nerve growth factor; CERE-110 is NGF gene therapy
age-related behavioral decline [21]: reversed age-related behavioral decline | cholinergic neuron cell death [21]: prevented cholinergic neuron cell death | cholinergic axonal density [22]: restores cholinergic axonal density in aged monkeys to levels observed in young monkeys | cholinergic neuron atrophy [22]: ameliorates cholinergic neuron atrophy
